Reference: patent publication US9815862B2, “Polymorphs of LNnT” (Glycom A/S, priority 2012, dated 2017)

Columns and labels:
[1] = Redissolution of the precipitate formed from aqueous LNnT solution; type: physicochemical; details: white precipitate from aqueous solution stored at 2-8° C. or room temperature
Procedure: Amorphous spray-dried LNnT (6.0087 g, water content: 2.67%, purity: 99.2% by HPAEC) was dissolved in HPLC water (10.66 ml). Dissolution was reached by shaking. Two samples of 1 ml solution were stored at 2-8° C. (sample 1) and room temperature (sample 2), respectively, for 4 weeks. […] The precipitation was collected by filtration and dried at atmospheric pressure.

[2] = Storage of crystalline polymorph in an open vessel, checked by XRPD; type: physicochemical; details: stored in an open vessel at ambient temperature and humidity for a week
Procedure: XRPD investigation of the collected crystals was conducted with a Philips PW 1830/PW 1050 instrument in transmission geometry, using CuKα radiation made monochromatic by means of a graphite monochromator. D-spacings were calculated from the 2Θ values, based on a wavelength of 1.54186 Å. As a general rule the 2Θ values have an error rate of […].

Row | SMILES | redissolution of the precipitated crystals [1] | change in XRPD pattern on storage (solid-state stability) [2]
1 | CC(=O)N[C@H]1[C@H](O[C@H]2[C@@H](O)[C@@H](CO)O[C@@H](O[C@H]3[C@H](O)[C@@H](O)C(O)O[C@@H]3CO)[C@@H]2O)O[C@H](CO)[C@@H](O[C@@H]2O[C@H](CO)[C@H](O)[C@H](O)[C@H]2O)[C@@H]1O (mixture of isomers) [LNnT polymorph IV, lacto-N-neotetraose] | can be redissolved only when ultrasonicated for 3 hours at 50 °C | –
2 | CC(=O)N[C@H]1[C@H](O[C@H]2[C@@H](O)[C@@H](CO)O[C@@H](O[C@H]3[C@H](O)[C@@H](O)C(O)O[C@@H]3CO)[C@@H]2O)O[C@H](CO)[C@@H](O[C@@H]2O[C@H](CO)[C@H](O)[C@H](O)[C@H]2O)[C@@H]1O (mixture of isomers) [LNnT polymorph V, lacto-N-neotetraose] | – | no substantial change in its XRPD pattern can be observed
